{"source": "patent US10513694B2", "about": "“Thienopyrrole compounds and uses thereof” (PROMEGA CORPORATION, priority 2015, dated 2019)", "key": {"Nluc luciferase": {"target": "Nluc luciferase (Oplophorus gracilirostris, UniProt Q9GV45, A31E/A60N/A81I/F95D/I117V/K70R/L54V/L99Q/M102K/N193R/P142E/Q151K/Q38R/Q45L/V71I/Y165I)", "sequence (Q9GV45 28-196 with tags or gaps with the stated changes limits assumed)": "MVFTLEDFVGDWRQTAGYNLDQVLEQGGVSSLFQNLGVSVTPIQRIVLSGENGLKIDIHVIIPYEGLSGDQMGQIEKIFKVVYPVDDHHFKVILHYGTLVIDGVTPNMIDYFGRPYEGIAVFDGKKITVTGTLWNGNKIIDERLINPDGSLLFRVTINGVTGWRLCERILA", "assay_type": "cell-based", "design": "expressed in transfected cells; host or cells: HEK293", "conditions": "HEK293; 10, 30 or 120 minutes", "method": "HEK293 cells were transiently transfected with Nluc luciferase to express it cytosolically. Twenty-four hours post-transfection, cells were exposed to a compound response curve of the thienopyrrole compound JRW-0147 or JRW-0013 for 10 minutes, 30 minutes, or 120 minutes. 10 μM furimazine was then added, and luminescence was measured."}, "[1]": {"tested_on": "Beta-2 Adrenergic Receptor-Nluc (B2AR-Nluc) fusion protein", "assay": "Cell permeability, B2AR-Nluc in HEK293 or HeLa cells -/+ digitonin", "assay_type": "cell-based", "method": "HEK293 or HeLa cells were transiently transfected with Beta-2 Adrenergic Receptor-Nluc (B2AR-Nluc) fusion protein to anchor and orient Nluc cytosolically. 24 hrs post-transfection, cells were treated with −/+50 μg/mL digitonin to emulate a live and lytic scenario, respectively. Then, intact cells and permeabilized cells were exposed to a compound response curve of thienopyrrole compound up to 2 hrs. 10 μM furimazine (Promega Corp.) was added, and luminescence was measured. If a thienopyrrole compound (inhibitor) was permeable, the dose-response curves for both live and permeabilized cells overlapped. However, if a thienopyrrole compound was impermeable, the EC50 was right-shifted in the live cells relative to the permeabilized cells."}, "[2]": {"target": "T1, purified Nluc (extracellular); Nluc-HALOTAG fusion protein (intracellular) (Oplophorus gracilirostris, UniProt Q9GV45, A31E/A60N/A81I/F95D/I117V/K70R/L54V/L99Q/M102K/N193R/P142E/Q151K/Q38R/Q45L/V71I/Y165I)", "T1 construct": "expressed in transfected cells; host or cells: HEK293 (Nluc-HaloTag); purified Nluc added from outside", "T1 sequence (Q9GV45 28-196 with tags or gaps with the stated changes limits assumed)": "as above", "assay": "Inhibition of extracellular luciferase activity and enhancement of intracellular BRET", "assay_type": "cell-based", "conditions": "HEK293 Nluc-HALOTAG + NANOBRET 618; 10 ng/mL extracellular purified Nluc; 2 hrs", "method": "HEK293 were transiently transfected with Nluc-HALOTAG fusion protein to orient Nluc-HALOTAG inside the cell. 24 hrs post-transfection, cells were labeled with NANOBRET 618 ligand to simulate specific intracellular BRET. Cells were then treated 10 ng/mL purified Nluc to simulate spurious extracellular luminescence. Cells were exposed to a compound response curve of the thienopyrrole compounds, JRW-0013, JRW-0051, JRW-0147, and JRW-0187, for 2 hrs. 10 μM furimazine was added, and the BRET ratio 610/450 nm was measured."}, "purified Nluc enzyme": {"target": "T2, purified Nluc enzyme (Oplophorus gracilirostris, UniProt Q9GV45, A31E/A60N/A81I/F95D/I117V/K70R/L54V/L99Q/M102K/N193R/P142E/Q151K/Q38R/Q45L/V71I/Y165I)", "T2 construct": "purchased Promega Corporation", "T2 sequence (Q9GV45 28-196 with tags or gaps with the stated changes limits assumed)": "as above", "assay_type": "biochemical", "conditions": "titration up to 100 μM final; RT 2 hrs; pro-substrate PBI-4442 + DTT", "in_short": "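Purified Nluc enzyme with 20 mM DTT and a pro-substrate reduced by DTT to the Nluc substrate. 11-point 1:2 compound titrations (top 100 μM final) incubated 2 h at RT; luminescence read and IC50 fitted.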"}, "[3]": {"tested_on": "Nluc-HALOTAG labeled with NANOBRET 618 ligand", "assay": "Inhibition of extracellular BRET", "assay_type": "cell-based", "conditions": "HEK293 Nluc-HDAC6; 10 ng/mL extracellular Nluc-HALOTAG/NANOBRET 618; 2 hrs", "method": "HEK293 were transiently transfected with an Nluc-HDAC6 fusion protein to orient Nluc-HDAC6 inside the cell. 24 hrs post-transfection, cells were treated 10 ng/mL purified Nluc-HALOTAG labeled with NANOBRET 618 ligand to simulate spurious extracellular BRET. Cells were then exposed to a compound response curve of the thienopyrrole compounds, JRW-0013, JRW-0051, JRW-0147, and JRW-0187, for 2 hrs. 10 μM furimazine was then added, and BRET ratio 610/450 nm was measured."}, "Nluc": {"target": "Nluc (Oplophorus gracilirostris, UniProt Q9GV45, A31E/A60N/A81I/F95D/I117V/K70R/L54V/L99Q/M102K/N193R/P142E/Q151K/Q38R/Q45L/V71I/Y165I)", "sequence (Q9GV45 28-196 with tags or gaps with the stated changes limits assumed)": "as above", "assay": "Specificity of inhibition of Nluc luciferase: Nluc", "assay_type": "biochemical"}}}
{"smiles": "CCN(C(=O)Cn1c(C(=O)N[C@H]2CC[C@H](C(=O)OC)CC2)cc2sccc21)c1cccc(C)c1", "note": "[JRW-0013, trans-methyl-4-(4-(2-(ethyl(m-tolyl)amino)-2-oxoethyl)-4H-thieno[3,2-b]pyrrole-5-carboxamido)cyclohexane-1-carboxylate]", "values": [{"measurement": "Change in RLUs from cytosolic Nluc (FIG. 16)", "setting": "Nluc luciferase", "result": "decrease the RLUs from Nluc in a dose-dependent manner independent of time"}, {"measurement": "Cell permeability", "setting": "[1]", "result": "cell-permeable"}, {"measurement": "BRET ratio 610/450 nm across compound dose-response curve (FIGS. 13B-13E)", "setting": "[2]", "result": "BRET ratio remained constant"}, {"measurement": "Inhibition of purified Nluc enzyme (FIG. 2)", "setting": "purified Nluc enzyme", "result": "capable of inhibiting purified Nluc enzyme"}, {"measurement": "BRET ratio 610/450 nm across compound dose-response curve (FIGS. 12B-12E)", "setting": "[3]", "result": "BRET ratio remained constant"}]}
{"smiles": "CCN(C(=O)Cn1c(C(=O)N[C@H]2CC[C@H](C(=O)NCCCCCC(=O)O)CC2)cc2sccc21)c1cccc(C)c1", "note": "[JRW-0147, 6-(trans-4-(4-(2-(ethyl(m-tolyl)amino)-2-oxoethyl)-4H-thieno[3,2-b]pyrrole-5-carboxamido)cyclohexane-1-carboxamido)hexanoic acid]", "values": [{"measurement": "Change in RLUs from cytosolic Nluc (FIG. 16)", "setting": "Nluc luciferase", "result": "no significant change in RLUs from Nluc"}, {"measurement": "Nluc, Avg (luminescence)", "setting": "Nluc; [cmpd] 0.1953125 μM", "result": 115442}, {"measurement": "Nluc, S/B", "setting": "Nluc; [cmpd] 0.1953125 μM", "result": 0.97}, {"measurement": "Nluc, Avg (luminescence)", "setting": "Nluc; [cmpd] 0.390625 μM", "result": 113278}, {"measurement": "Nluc, S/B", "setting": "Nluc; [cmpd] 0.390625 μM", "result": 0.95}, {"measurement": "Nluc, Avg (luminescence)", "setting": "Nluc; [cmpd] 0.78125 μM", "result": 111603}, {"measurement": "Nluc, S/B", "setting": "Nluc; [cmpd] 0.78125 μM", "result": 0.94}, {"measurement": "Nluc, Avg (luminescence)", "setting": "Nluc; [cmpd] 1.5625 μM", "result": 103399}, {"measurement": "Nluc, S/B", "setting": "Nluc; [cmpd] 1.5625 μM", "result": 0.87}, {"measurement": "Nluc, Avg (luminescence)", "setting": "Nluc; [cmpd] 3.125 μM", "result": 96256}, {"measurement": "Nluc, S/B", "setting": "Nluc; [cmpd] 3.125 μM", "result": 0.81}, {"measurement": "Nluc, Avg (luminescence)", "setting": "Nluc; [cmpd] 6.25 μM", "result": 79191}, {"measurement": "Nluc, S/B", "setting": "Nluc; [cmpd] 6.25 μM", "result": 0.67}, {"measurement": "Nluc, Avg (luminescence)", "setting": "Nluc; [cmpd] 12.5 μM", "result": 66480}, {"measurement": "Nluc, S/B", "setting": "Nluc; [cmpd] 12.5 μM", "result": 0.56}, {"measurement": "Nluc, Avg (luminescence)", "setting": "Nluc; [cmpd] 25 μM", "result": 54498}, {"measurement": "Nluc, S/B", "setting": "Nluc; [cmpd] 25 μM", "result": 0.46}, {"measurement": "Nluc, Avg (luminescence)", "setting": "Nluc; [cmpd] 50 μM", "result": 42630}, {"measurement": "Nluc, S/B", "setting": "Nluc; [cmpd] 50 μM", "result": 0.36}, {"measurement": "Nluc, Avg (luminescence)", "setting": "Nluc; [cmpd] 100 μM", "result": 32702}, {"measurement": "Nluc, S/B", "setting": "Nluc; [cmpd] 100 μM", "result": 0.27}, {"measurement": "Nluc, Avg (luminescence)", "setting": "Nluc; [cmpd] 200 μM", "result": 23722}, {"measurement": "Nluc, S/B", "setting": "Nluc; [cmpd] 200 μM", "result": 0.20}, {"measurement": "Cell permeability", "setting": "[1]", "result": "cell-impermeable"}, {"measurement": "BRET ratio 610/450 nm across compound dose-response curve (FIGS. 13B-13E)", "setting": "[2]", "result": "intracellular BRET ratio was enhanced"}, {"measurement": "Inhibition of purified Nluc enzyme (FIG. 2)", "setting": "purified Nluc enzyme", "result": "capable of inhibiting purified Nluc enzyme"}, {"measurement": "BRET ratio 610/450 nm across compound dose-response curve (FIGS. 12B-12E)", "setting": "[3]", "result": "BRET ratio decreased"}]}
{"smiles": "CCN(C(=O)Cn1c(C(=O)N[C@H]2CC[C@H](C(=O)NCCCCCCS(=O)(=O)[O-])CC2)cc2sccc21)c1cccc(C)c1.[Na+]", "note": "[JRW-0344, Sodium 6-(trans-4-(4-(2-(ethyl(m-tolyl)amino)-2-oxoethyl)-4H-thieno[3,2-b]pyrrole-5-carboxamido)cyclohexane-1-carboxamido)hexane-1-sulfonate]", "values": [{"measurement": "Nluc, Avg (luminescence)", "setting": "Nluc; [cmpd] 0.1953125 μM", "result": 102409}, {"measurement": "Nluc, S/B", "setting": "Nluc; [cmpd] 0.1953125 μM", "result": 0.92}, {"measurement": "Nluc, Avg (luminescence)", "setting": "Nluc; [cmpd] 0.390625 μM", "result": 99851}, {"measurement": "Nluc, S/B", "setting": "Nluc; [cmpd] 0.390625 μM", "result": 0.90}, {"measurement": "Nluc, Avg (luminescence)", "setting": "Nluc; [cmpd] 0.78125 μM", "result": 95060}, {"measurement": "Nluc, S/B", "setting": "Nluc; [cmpd] 0.78125 μM", "result": 0.86}, {"measurement": "Nluc, Avg (luminescence)", "setting": "Nluc; [cmpd] 1.5625 μM", "result": 83141}, {"measurement": "Nluc, S/B", "setting": "Nluc; [cmpd] 1.5625 μM", "result": 0.75}, {"measurement": "Nluc, Avg (luminescence)", "setting": "Nluc; [cmpd] 3.125 μM", "result": 71976}, {"measurement": "Nluc, S/B", "setting": "Nluc; [cmpd] 3.125 μM", "result": 0.65}, {"measurement": "Nluc, Avg (luminescence)", "setting": "Nluc; [cmpd] 6.25 μM", "result": 65136}, {"measurement": "Nluc, S/B", "setting": "Nluc; [cmpd] 6.25 μM", "result": 0.59}, {"measurement": "Nluc, Avg (luminescence)", "setting": "Nluc; [cmpd] 12.5 μM", "result": 52627}, {"measurement": "Nluc, S/B", "setting": "Nluc; [cmpd] 12.5 μM", "result": 0.47}, {"measurement": "Nluc, Avg (luminescence)", "setting": "Nluc; [cmpd] 25 μM", "result": 40392}, {"measurement": "Nluc, S/B", "setting": "Nluc; [cmpd] 25 μM", "result": 0.36}, {"measurement": "Nluc, Avg (luminescence)", "setting": "Nluc; [cmpd] 50 μM", "result": 32113}, {"measurement": "Nluc, S/B", "setting": "Nluc; [cmpd] 50 μM", "result": 0.29}, {"measurement": "Nluc, Avg (luminescence)", "setting": "Nluc; [cmpd] 100 μM", "result": 23445}, {"measurement": "Nluc, S/B", "setting": "Nluc; [cmpd] 100 μM", "result": 0.21}, {"measurement": "Nluc, Avg (luminescence)", "setting": "Nluc; [cmpd] 200 μM", "result": 16291}, {"measurement": "Nluc, S/B", "setting": "Nluc; [cmpd] 200 μM", "result": 0.15}]}
